According to article PMC12376244 (Chembiochem, 2025):

Tests used:
CmSTC1 = test: malachite green phosphate release assay, coupled to yeast pyrophosphatase; assay type: biochemical, Cubamyces menziesii; conditions: 5 mM MgCl2, Tris-HCl/MES/CAPS buffer, pH 7.8; FDP range 3.125 to 50 or 75 μM
CmSTC3 = test: as above; assay type: biochemical, Cubamyces menziesii; conditions: 5 mM MgCl2, Tris-HCl/MES/CAPS buffer, pH 7.8; FDP range 3.125 to 50 or 75 μM

Km (CmSTC1): 68.2 µM | Km (CmSTC3): 19.9 µM
SMILES: CC(C)=CCC/C(C)=C/CC/C(C)=C/COP(=O)(O)OP(=O)(O)O [FDP]
